Results published in US20230320956A1, “DIARYLALKANE COMPOUNDS AND COMPOSITIONS FOR USE WITH SKIN AGING AND METHODS OF PRODUCTION THEREOF” (Unigen, Inc., priority 2022, published 2023).

Tested on: keratinocytes (Hacat cell line)
Experiment: Global gene expression (RNA-seq) in treated keratinocytes
Assay type: cell-based, human
Settings: for Fold change (gene expression): 40 μM vs untreated; for Fold Enrichment / Number of Genes Differentially Expressed: 40 μM
Protocol: To determine specific expression changes dimethoxytolyl propylresorcinol exerted on human keratinocyte aging genes, keratinocytes (Hacat cell line) were treated dimethoxytolyl propylresorcinol at 40 μM and gene expression was analyzed by RNA-seq. Differential gene expression was compared to untreated keratinocytes and cells treated with 40 μM Retinol A to find genes involved in aging. […] Retinol was chosen as a positive control because retinoids have been described as having effective anti-aging and anti-wrinkle effects (Zasada M, 2019). We directly compared the effects of Retinol on keratinocytes with the same concentration of dimethoxytolyl propylresorcinol.

[1] = Gene Cluster Activation of MAPK activity
[2] = Gene Cluster Calcium ion binding
[3] = Gene Cluster Cell-cell signaling
[4] = Gene Cluster Cellular response to lipopolysaccharide
[5] = Gene Cluster Cellular response to retinoic acid
[6] = Gene Cluster Epidermis development
[7] = Gene Cluster Epithelial cell differentiation
[8] = Gene Cluster Extracellular exosome
[9] = Gene Cluster Extracellular matrix organization
[10] = Gene Cluster Extracellular region
[11] = Gene Cluster Extracellular space
[12] = Gene Cluster Growth factor activity
[13] = Gene Cluster Inflammatory response
[14] = Gene Cluster Intermediate filament cytoskeleton organization
[15] = Gene Cluster Negative regulation of ERK1 and ERK2 cascade
[16] = Gene Cluster Negative regulation of cell proliferation
[17] = Gene Cluster Negative regulation of endopeptidase activity
[18] = Gene Cluster Neutrophil chemotaxis
[19] = Gene Cluster O-glycan processing
[20] = Gene Cluster Osteoblast differentiation
[21] = Gene Cluster Positive regulation of angiogenesis
[22] = Gene Cluster Positive regulation of cell migration
[23] = Gene Cluster Positive regulation of cell proliferation
[24] = Gene Cluster Positive regulation of gene expression
[25] = Gene Cluster Positive regulation of smooth muscle cell proliferation
[26] = Gene Cluster Proteinaceous extracellular matrix
[27] = Gene Cluster Transforming growth factor beta receptor binding

## CC1=C(/C=C/C(C)=C/C=C/C(C)=C/CO)C(C)(C)CCC1 [Retinol, reference compound]
AHR - Aryl hydrocarbon receptor, Oxidative stress
  Fold change (gene expression): No effect
ANGPTL4 - Angiopoietin-like 4, Negative regulation of growth/Angiogenesis
  Fold change (gene expression): 2.77 fold
ANOS1 - Anosmin 1, ECM/Nerve adhesion
  Fold change (gene expression): 0.55 fold
BMP4 - Bone morphogenetic protein 4, Growth
  Fold change (gene expression): 0.51 fold
C3orf33 - Chromosome 3 open reading frame 33, Negative regulation of growth
  Fold change (gene expression): 2.24 fold
CD1D - CD1d molecule, ECM
  Fold change (gene expression): 0.32 fold
CDK5R1 - Cyclin-dependent kinase 5 activator 1, Growth/Skin barrier
  Fold change (gene expression): No effect
CEACAM1 - CEA cell adhesion molecule 1, Cell adhesion
  Fold change (gene expression): 3.00 fold
COL1A1 - Collagen type 1, ECM
  Fold change (gene expression): No effect
COL5A1 - Collagen type V alpha 1 chain, ECM
  Fold change (gene expression): 0.27 fold
CRISPLD2 - Cysteine-rich secretory protein LCCL domain-containing 2, ECM
  Fold change (gene expression): 1.98 fold
CXCL3 - C-X-C motif chemokine ligand 3, Immune signaling
  Fold change (gene expression): 2.60 fold
CYP1A1 - Cytochrome P450 family 1 subfamily A member 1, Drug metabolism
  Fold change (gene expression): 2.30 fold
ECM1 - Extracellular matrix protein 1, ECM
  Fold change (gene expression): No effect
EPHA4 - Ephrin type-A receptor 4, Cell adhesion, cell communication
  Fold change (gene expression): 0.55 fold
EREG - Epiregulin, Growth
  Fold change (gene expression): No effect
FABP5 - Fatty acid binding protein 5, Skin barrier
  Fold change (gene expression): No effect
FGF1 - Fibroblast growth factor 1, Growth
  Fold change (gene expression): 0.45 fold
FGF11 - Fibroblast growth factor 11, Growth
  Fold change (gene expression): 0.50 fold
FLRT2 - Fibronectin leucine-rich transmembrane protein 2, ECM
  Fold change (gene expression): 0.58 fold
[1]
  Fold Enrichment: 3.15 fold
  Number of Genes Differentially Expressed: 7
Gene Cluster Angiogenesis
  Fold Enrichment: 2.37 fold
  Number of Genes Differentially Expressed: 11
[2]
  Fold Enrichment: 2.04 fold
  Number of Genes Differentially Expressed: 30
Gene Cluster Cell development
  Fold Enrichment: 4.81 fold
  Number of Genes Differentially Expressed: 4
Gene Cluster Cell surface
  Fold Enrichment: 1.84 fold
  Number of Genes Differentially Expressed: 20
[3]
  Fold Enrichment: 2.46 fold
  Number of Genes Differentially Expressed: 13
[4]
  Fold Enrichment: 4.26 fold
  Number of Genes Differentially Expressed: 10
[5]
  Fold Enrichment: 4.12 fold
  Number of Genes Differentially Expressed: 6
[6]
  Fold Enrichment: 4.53 fold
  Number of Genes Differentially Expressed: 8
[7]
  Fold Enrichment: 4.81 fold
  Number of Genes Differentially Expressed: 7
[8]
  Fold Enrichment: 1.47 fold
  Number of Genes Differentially Expressed: 83
[9]
  Fold Enrichment: 3.19 fold
  Number of Genes Differentially Expressed: 13
[10]
  Fold Enrichment: 1.73 fold
  Number of Genes Differentially Expressed: 56
[11]
  Fold Enrichment: 2.48 fold
  Number of Genes Differentially Expressed: 67
[12]
  Fold Enrichment: 3.00 fold
  Number of Genes Differentially Expressed: 10
Gene Cluster Growth
  Fold Enrichment: 6.87 fold
  Number of Genes Differentially Expressed: 4
Gene Cluster Heparin binding
  Fold Enrichment: 4.86 fold
  Number of Genes Differentially Expressed: 16
[13]
  Fold Enrichment: 2.54 fold
  Number of Genes Differentially Expressed: 20
[14]
  Fold Enrichment: 9.62 fold
  Number of Genes Differentially Expressed: 3
[15]
  Fold Enrichment: 5.81 fold
  Number of Genes Differentially Expressed: 7
[16]
  Fold Enrichment: 2.43 fold
  Number of Genes Differentially Expressed: 20
[17]
  Fold Enrichment: 2.78 fold
  Number of Genes Differentially Expressed: 7
[18]
  Fold Enrichment: 3.65 fold
  Number of Genes Differentially Expressed: 5
[19]
  Fold Enrichment: 4.00 fold
  Number of Genes Differentially Expressed: 5
[20]
  Fold Enrichment: 3.24 fold
  Number of Genes Differentially Expressed: 7
[21]
  Fold Enrichment: 3.35 fold
  Number of Genes Differentially Expressed: 8
[22]
  Fold Enrichment: 3.40 fold
  Number of Genes Differentially Expressed: 13
[23]
  Fold Enrichment: 1.86 fold
  Number of Genes Differentially Expressed: 18
[24]
  Fold Enrichment: 2.20 fold
  Number of Genes Differentially Expressed: 12
[25]
  Fold Enrichment: 4.81 fold
  Number of Genes Differentially Expressed: 6
[26]
  Fold Enrichment: 4.27 fold
  Number of Genes Differentially Expressed: 23
Gene Cluster Response to drug
  Fold Enrichment: 2.37 fold
  Number of Genes Differentially Expressed: 15
[27]
  Fold Enrichment: 5.79 fold
  Number of Genes Differentially Expressed: 5
HAS2 - hyaluronan synthase 2, ECM
  Fold change (gene expression): No effect
HAS3 - hyaluronan synthase 3, ECM
  Fold change (gene expression): No effect
HBEGF - Heparin-binding EGF-like growth factor, Growth
  Fold change (gene expression): No effect
HIF1A - Hypoxia-inducible factor 1 subunit alpha, Oxidative stress
  Fold change (gene expression): No effect
HMOX1 - Heme oxygenase 1, Oxidative stress
  Fold change (gene expression): No effect
HS3ST1 - Heparan sulfate-glucosamine 3-sulfotransferase 1, ECM
  Fold change (gene expression): 1.48 fold
IL1A - Interleukin 1 alpha, Cytokine signaling
  Fold change (gene expression): No effect
IL1RL1 - Interleukin 1 receptor-like 1, Immune signaling
  Fold change (gene expression): 3.13 fold
ITGA6 - Integrin subunit alpha 6, Cell adhesion
  Fold change (gene expression): 0.59 fold
ITGBL1 - Integrin subunit beta-like 1, Cell adhesion
  Fold change (gene expression): No effect
KIF13A - Kinesin family member 13A, Cytoskeleton/secretion
  Fold change (gene expression): 0.68 fold
LAMA3 - Laminin subunit alpha 3, ECM
  Fold change (gene expression): No effect
LAMC2 - Laminin subunit gamma 2, ECM
  Fold change (gene expression): 0.71 fold
NGF - Nerve growth factor, Growth
  Fold change (gene expression): No effect
NID2 - Nidogen 2 precursor, ECM
  Fold change (gene expression): 0.79 fold
OCLN - Occludin, Skin barrier
  Fold change (gene expression): No effect
OLFM4 - Olfactomedin 4, ECM
  Fold change (gene expression): 0.28 fold
PARP15 - Poly (ADP-Ribose) polymerase family member 15, DNA damage repair/transcription regulation
  Fold change (gene expression): No effect
PI3 - Peptidase inhibitor 3, elastase inhibitor, Elastin genes
  Fold change (gene expression): No effect
PSAPL1 - Prosaposin-like 1, ECM
  Fold change (gene expression): 0.32 fold
PSG5 - Pregnancy specific beta-1-glycoprotein 5, ECM
  Fold change (gene expression): 0.37 fold
PTPRR - Protein tyrosine phosphatase receptor type R, Negative regulation of growth
  Fold change (gene expression): 2.31 fold
RAPGEF3 - Rap guanine nucleotide exchange factor 3, Plasma membrane fusion/cytoskeleton
  Fold change (gene expression): 1.81 fold
SELE - E-Selectin, Cell adhesion
  Fold change (gene expression): No effect
SEMA3D - Semaphorin 3D, ECM/Nerve growth
  Fold change (gene expression): 0.50 fold
SERPINB2 - Serpin family B member 2, Skin barrier
  Fold change (gene expression): 0.70 fold
SERPINB4 - Serpin family B member 4, Skin barrier
  Fold change (gene expression): No effect
SIRT1 - Sirtuin 1, Transcription regulation
  Fold change (gene expression): No effect
SIRT7 - Sirtuin 7, Transcription regulation
  Fold change (gene expression): No effect
SOD2 - Superoxide dismutase 2, Oxidative stress
  Fold change (gene expression): No effect
TFP12 - Tissue factor pathway inhibitor 2, ECM
  Fold change (gene expression): 2.46 fold
TGFB1 - Transforming growth factor beta 1, TGF-β signaling
  Fold change (gene expression): No effect
TLR4 - Toll-like receptor 4, Immune signaling
  Fold change (gene expression): 2.67 fold
TNC - Tenascin C, ECM/Nerve growth
  Fold change (gene expression): 0.14 fold
TP73 - Tumor protein P73, Growth
  Fold change (gene expression): 0.38 fold
TXNRD1 - Thioredoxin reductase 1, Oxidative stress
  Fold change (gene expression): 1.45 fold
UGCG - UDP-glucose ceramide glucosyltransferase, Lipid metabolism and transport
  Fold change (gene expression): 1.24 fold
VIT - Vitrin, ECM
  Fold change (gene expression): 0.14 fold
